From PMC5578959, “Selective LRRK2 kinase inhibition reduces phosphorylation of endogenous Rab10 and Rab12 in human peripheral mononuclear blood cells” (Scientific Reports, 2017)

What was measured:
Assay in all cases: KiNativ profiling in human PBMCs
Type in all cases: binding
MLK3 = system: T1, MLK3; details: Lys2
T1 construct: purchased ActivX Technologies (KiNativ)
Description: (§1) Compounds were shipped to ActivX Technologies (San Diego, US) where LRRK2 target engagement and broad kinase profiling was performed using KiNativ™ procedures. Live cell treatment of human peripheral blood mononuclear cells (PBMCs) at two compound concentrations (1 µM and 0.1 µM) were used to evaluate and compare in vitro target engagement and kinase selectivity, respectively (see Supplementary File 1).

SLK = system: T2, SLK
T2 construct: purchased ActivX Technologies (KiNativ)
Description: as §1

NDR2 = system: T3, NDR2
T3 construct: purchased ActivX Technologies (KiNativ)
Description: as §1

p38a = system: T4, p38a
T4 construct: purchased ActivX Technologies (KiNativ)
Description: as §1

MST1,MST2 = details: Lys2
Description: as §1

FGR = system: T5, FGR; details: Activation Loop
T5 construct: purchased ActivX Technologies (KiNativ)
Description: as §1

RSK2 domain2 = system: T6, RSK2 domain2; details: Lys2
T6 construct: RSK2 domain2; purchased ActivX Technologies (KiNativ)
Description: as §1

QSK = system: T7, QSK; details: Lys1
T7 construct: purchased ActivX Technologies (KiNativ)
Description: as §1

BTK = system: T8, BTK; details: Activation Loop
T8 construct: purchased ActivX Technologies (KiNativ)
Description: as §1

FES = system: T9, FES; details: Lys1
T9 construct: purchased ActivX Technologies (KiNativ)
Description: as §1

MAP3K15,MAP3K5,MAP3K6 = details: Lys1
Description: as §1

PKR = system: T10, PKR
T10 construct: purchased ActivX Technologies (KiNativ)
Description: as §1

BARK1 = system: T11, BARK1; details: Lys2
T11 construct: purchased ActivX Technologies (KiNativ)
Description: as §1

RSK1 domain1 = system: T12, RSK1 domain1
T12 construct: RSK1 domain1; purchased ActivX Technologies (KiNativ)
Description: as §1

PIP5K3 = system: T13, PIP5K3; details: ATP
T13 construct: purchased ActivX Technologies (KiNativ)
Description: as §1

MARK1,MARK2 = details: Lys1
Description: as §1

LYN = system: T14, LYN
T14 construct: purchased ActivX Technologies (KiNativ)
Description: as §1

MARK2,MARK3 = details: Lys2
Description: as §1

MST2 = system: T15, MST2; details: 1µM; Lys1
T15 construct: purchased ActivX Technologies (KiNativ)
Description: as §1

ULK1 = system: T16, ULK1; details: Lys2
T16 construct: purchased ActivX Technologies (KiNativ)
Description: as §1

PYK2 = system: T17, PYK2; details: Lys1
T17 construct: purchased ActivX Technologies (KiNativ)
Description: as §1

Wnk1,Wnk2 = details: ATP Loop
Description: as §1

BRAF = system: T18, BRAF; details: Lys2
T18 construct: purchased ActivX Technologies (KiNativ)
Description: as §1

JAK3 domain2 = system: T19, JAK3 domain2
T19 construct: JAK3 domain2; purchased ActivX Technologies (KiNativ)
Description: as §1

TAO2 = system: T20, TAO2; details: Lys2
T20 construct: purchased ActivX Technologies (KiNativ)
Description: as §1

PIP4K2A = system: T21, PIP4K2A; details: ATP
T21 construct: purchased ActivX Technologies (KiNativ)
Description: as §1

CDK11,CDK8 = details: Lys2
Description: as §1

NDR1 = system: T22, NDR1
T22 construct: purchased ActivX Technologies (KiNativ)
Description: as §1

MAP2K5 = system: T23, MAP2K5; details: Lys2
T23 construct: purchased ActivX Technologies (KiNativ)
Description: as §1

Wnk1,Wnk2,Wnk4 = details: Activation Loop
Description: as §1

PRP4 = system: T24, PRP4; details: Other
T24 construct: purchased ActivX Technologies (KiNativ)
Description: as §1

GSK3A = system: T25, GSK3A; details: Lys2
T25 construct: purchased ActivX Technologies (KiNativ)
Description: as §1

CHK2 = system: T26, CHK2
T26 construct: purchased ActivX Technologies (KiNativ)
Description: as §1

Erk5 = system: T27, Erk5; details: Lys2
T27 construct: purchased ActivX Technologies (KiNativ)
Description: as §1

SMG1 = system: T28, SMG1; details: ATP
T28 construct: purchased ActivX Technologies (KiNativ)
Description: as §1

Cc1cccc(-c2cc(Nc3ccn(C)n3)nc3[nH]cc(C#N)c23)c1 [Lu AF58786]
Inhibition (MLK3; 0.1µM): 1.5%
Inhibition (MLK3; 1µM): 8.8%
Inhibition (SLK; 0.1µM, Lys1): -13.3%
Inhibition (SLK; 0.1µM, Lys2): 8.0%
Inhibition (SLK; 1µM, Lys1): 25.5%
Inhibition (SLK; 1µM, Lys2): -7.2%
Inhibition (NDR2; 0.1µM, Lys1): -14.6%
Inhibition (NDR2; 0.1µM, Lys2): 10.7%
Inhibition (NDR2; 1µM, Lys1): -18.5%
Inhibition (NDR2; 1µM, Lys2): 1.3%
Inhibition (p38a; 0.1µM, Lys2): 0.7%
Inhibition (p38a; 0.1 µM, Other): -1.7%
Inhibition (p38a; 1µM, Lys2): -4.6%
Inhibition (p38a; 1 µM, Other): -7.7%
Inhibition (MST1,MST2; 0.1µM): 6.3%
Inhibition (MST1,MST2; 1µM): 4.8%
Inhibition (FGR; 0.1µM): 11.4%
Inhibition (FGR; 1µM): 5.2%
Inhibition (RSK2 domain2; 0.1µM): -3.4%
Inhibition (RSK2 domain2; 1µM): 2.8%
Inhibition (QSK; 0.1µM): 15.6%
Inhibition (QSK; 1µM): 28.4%
Inhibition (BTK; 0.1µM): 25.8%
Inhibition (BTK; 1µM): 9.5%
Inhibition (FES; 0.1µM): 13.9%
Inhibition (FES; 1µM): 9.3%
Inhibition (MAP3K15,MAP3K5,MAP3K6; 0.1µM): 12.0%
Inhibition (MAP3K15,MAP3K5,MAP3K6; 1µM): 11.6%
Inhibition (PKR; 0.1µM, Activation Loop): 6.9%
Inhibition (PKR; 0.1µM, Lys2): 5.1%
Inhibition (PKR; 1µM, Activation Loop): -2.5%
Inhibition (PKR; 1µM, Lys2): 4.5%
Inhibition (BARK1; 0.1µM): 12.1%
Inhibition (BARK1; 1µM): 6.3%
Inhibition (RSK1 domain1; 0.1µM, Activation Loop): 8.7%
Inhibition (RSK1 domain1; 0.1µM, Lys2): -0.654%
Inhibition (RSK1 domain1; 1µM, Activation Loop): 18.4%
Inhibition (RSK1 domain1; 1µM, Lys2): 12.8%
Inhibition (PIP5K3; 0.1µM): -2.2%
Inhibition (PIP5K3; 1µM): 4.2%
Inhibition (MARK1,MARK2; 0.1µM): 16.5%
Inhibition (MARK1,MARK2; 1µM): 7.1%
Inhibition (LYN; 0.1µM, Activation Loop): -18.7%
Inhibition (LYN; 0.1µM, Lys1): -21.4%
Inhibition (LYN; 1µM, Activation Loop): 1.0%
Inhibition (LYN; 1µM, Lys1): -4.5%
Inhibition (MARK2,MARK3; 0.1µM): -38.4%
Inhibition (MARK2,MARK3; 1µM): -36.2%
Inhibition (MST2): 11.8%
Inhibition (ULK1; 0.1µM): -3.7%
Inhibition (ULK1; 1µM): -7.0%
Inhibition (PYK2; 0.1µM): -16.3%
Inhibition (PYK2; 1µM): -2.7%
Inhibition (Wnk1,Wnk2; 0.1µM): 12.8%
Inhibition (Wnk1,Wnk2; 1µM): 3.9%
Inhibition (BRAF; 0.1µM): 6.1%
Inhibition (BRAF; 1µM): -13.8%
Inhibition (JAK3 domain2; 0.1µM, Activation Loop): 4.0%
Inhibition (JAK3 domain2; 0.1µM, Lys1): 12.9%
Inhibition (JAK3 domain2; 1µM, Activation Loop): 52.9%
Inhibition (JAK3 domain2; 1µM, Lys1): 20.6%
Inhibition (TAO2; 0.1µM): 17.3%
Inhibition (TAO2; 1µM): 18.3%
Inhibition (PIP4K2A; 0.1µM): -4.0%
Inhibition (PIP4K2A; 1µM): -14.7%
Inhibition (CDK11,CDK8; 0.1µM): -20.3%
Inhibition (CDK11,CDK8; 1µM): -2.0%
Inhibition (NDR1; 0.1µM, Lys1): 0.33%
Inhibition (NDR1; 0.1µM, Lys2): 16.5%
Inhibition (NDR1; 1µM, Lys1): -11.0%
Inhibition (NDR1; 1µM, Lys2): 0.751%
Inhibition (MAP2K5; 0.1µM): -0.318%
Inhibition (MAP2K5; 1µM): 17.4%
Inhibition (Wnk1,Wnk2,Wnk4; 0.1µM): 0.9%
Inhibition (Wnk1,Wnk2,Wnk4; 1µM): -6.6%
Inhibition (PRP4; 0.1 µM): -2.3%
Inhibition (PRP4; 1 µM): 3.0%
Inhibition (GSK3A; 0.1µM): 13.7%
Inhibition (GSK3A; 1µM): 27.3%
Inhibition (CHK2; 0.1µM, Lys1): 15.1%
Inhibition (CHK2; 0.1µM, Lys2): 2.3%
Inhibition (CHK2; 1µM, Lys1): 2.8%
Inhibition (CHK2; 1µM, Lys2): -16.2%
Inhibition (Erk5; 0.1µM): 2.1%
Inhibition (Erk5; 1µM): 10.9%
Inhibition (SMG1; 0.1 µM, DTVTIHSVGGTITILPTKTKPK): -6.3%
Inhibition (SMG1; 0.1 µM, SYPYLFKGLEDLHLDER): 12.6%
Inhibition (SMG1; 1 µM, DTVTIHSVGGTITILPTKTKPK): -13.9%
Inhibition (SMG1; 1 µM, SYPYLFKGLEDLHLDER): 4.3%
